According to patent US20230146507A1, “N-PHENYL-3-MERCAPTOPROPANAMIDE DERIVATIVES AS METALLO-BETA-LACTAMASE INHIBITORS FOR THE TREATMENT OF BACTERIAL INFECTIONS” (Helmholtz-Zentrum Für Infektionsforschung GmbH, priority 2020, published 2023):

What was measured:
Type in all cases: biochemical
Settings in all cases: Means and SD of at least two independent experiments
IMP-7 = IMP-7 (Pseudomonas aeruginosa, UniProt Q93AU3); assay: In vitro inhibition assay (kinetic fluorescence-based activity assay), IMP-7
Chain of IMP-7 (Q93AU3 entry or part of it): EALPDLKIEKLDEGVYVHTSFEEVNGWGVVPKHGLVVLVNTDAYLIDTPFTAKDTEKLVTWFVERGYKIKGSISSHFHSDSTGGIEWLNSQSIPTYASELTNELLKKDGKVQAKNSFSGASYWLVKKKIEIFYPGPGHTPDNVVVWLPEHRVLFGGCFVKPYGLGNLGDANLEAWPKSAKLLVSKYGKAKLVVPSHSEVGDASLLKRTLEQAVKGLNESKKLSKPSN
Method: (§1) Protein expression and purification. The expression of IMP-7, VIM-1, and NDM-1 was performed according to the protocol previously published by Klingler et al. (Klingler, F. M.; Wichelhaus, T. A.; Frank, D.; Cuesta-Bernal, J.; El-Delik, J.; Müller, H. F.; Sjuts, H.; Gottig, S.; Koenigs, A.; Pos, K. M.; et al. Approved Drugs Containing Thiols as Inhibitors of Metallo-β-Lactamases: Strategy to Combat Multidrug-Resistant Bacteria. J. Med. Chem. 2015, 58 (8), 3626-3630. https://doi.org/10.1021/jm501844d) with slight modifications.
(§2) In vitro inhibition assay. Activity assays for NDM-1, VIM-1, VIM-2 and IMP-7 were carried out, as described by Klingler et al. Final protein concentrations were 0.5 nM (NDM-1), 4.0 nM (VIM-1), and 0.1 nM (IMP-7) in a 50 mM HEPES buffer (pH 7.5, 0.01% Triton X-100) Substrate (Fluorocillin™ (Invitrogen, Darmstadt, Germany) was dissolved in assay buffer to a final concentration of 888 nM. Test compounds were dissolved and pre-diluted in DMSO (final concentration: 1%). In a black polystyrol 96-well plate (Corning) an amount of […] of the respective inhibitor solution at different concentrations was incubated with […] of respective protein containing buffer for 30 minutes at room temperature. […] of substrate solution was added. The readout of the emitted fluorescence was started immediately (45 s for 30 cycles) using a Tecan Infinite F200Pro (Tecan Group Ltd; excitation at 495 nm and emission at 525 nm). Blank controls were performed without enzyme. Positive controls were performed with enzyme but without inhibitor. The inhibitory activity of each test compound was measured in three independent experiments. For calculation of IC50 values, data obtained from measurements with eight different inhibitor concentrations were used. For the evaluation of the sigmoidal dose response equation (variable slope with four parameters) GraphPad Prism 5 (GraphPad Software, La Jolla, Calif., USA) was used.

NDM-1 = molecular target: T1, NDM-1 (Klebsiella pneumoniae, UniProt C7C422); assay: In vitro inhibition assay (kinetic fluorescence-based activity assay), NDM-1
T1 construct: made in house
T1 sequence (C7C422 29-270, looked up, species assumed): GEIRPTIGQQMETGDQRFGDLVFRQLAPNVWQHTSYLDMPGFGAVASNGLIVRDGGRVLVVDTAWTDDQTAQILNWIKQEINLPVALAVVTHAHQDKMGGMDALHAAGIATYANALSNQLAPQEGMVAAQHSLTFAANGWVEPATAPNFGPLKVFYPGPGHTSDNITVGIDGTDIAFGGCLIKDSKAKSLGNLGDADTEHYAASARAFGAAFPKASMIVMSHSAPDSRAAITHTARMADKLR
Method: as §1, §2

VIM-1 = molecular target: T2, VIM-1 (Pseudomonas aeruginosa, UniProt A0A0F7KYQ8); assay: In vitro inhibition assay (kinetic fluorescence-based activity assay), VIM-1
T2 construct: made in house
Method: as §1, §2

Row | Compound | IC50 (IMP-7) [µM] | IC50 (NDM-1) [µM] | IC50 (μM) VIM-1 (VIM-1) | IC50 (VIM-1) [µM] | IC50 (μM) IMP-7 (IMP-7)
1 | O=C(CCS)Nc1cccc(O)c1 [HIPS1687] | 1.4 ± 0.2 | 2.7 ± 0.5 | – | 0.1 | –
2 | O=C(CCS)Nc1ccc(O)cc1 [HIPS5190] | 3.4 ± 0.7 | 4 ± 1.1 | – | 0.2 | –
3 | CS(=O)(=O)Nc1cccc(NC(=O)CCS)c1 [HIPS5585] | 1.3 | 2.2 ± 0.3 | – | 1.3 | –
4 | O=C(CCS)Nc1ccc(S(=O)(=O)N2CCOCC2)cc1 [HIPS5659] | 7.1 ± 1.4 | 2.5 ± 0.2 | – | 1.7 ± 0.3 | –
5 | O=C(CCS)Nc1ccccc1O [HIPS5661] | 3.3 ± 0.4 | 2.2 ± 0.4 | – | 0.2 | –

Further compounds by falling IC50 (NDM-1), results first:

Row | IC50 (IMP-7) [µM] | IC50 (NDM-1) [µM] | IC50 (μM) VIM-1 (VIM-1) | IC50 (VIM-1) [µM] | IC50 (μM) IMP-7 (IMP-7) | Compound
6 | – | 7 ± 0.3 | – | 1.9 ± 0.2 | n.i. | CS(=O)(=O)Nc1ccccc1NC(=O)CCS [HIPS5654]
7 | 1.1 ± 0.7 | 2.8 ± 0.1 | – | 0.1 | – | COC(=O)c1ccc(NC(=O)CCS)cc1 [HIPS5586]
8 | 5.5 ± 0.1 | 1.5 ± 0.3 | – | 0.4 ± 0.1 | – | CC(=O)c1ccc(NC(=O)CCS)cc1 [HIPS5188]
9 | 1 ± 0.1 | 1.3 ± 0.2 | n.i. | – | – | COC(=O)c1ccccc1NC(=O)CCS [HIPS1685]
